Source: patent publication US9567367B2, “Synthetic peptides for treatment of bacterial infections” (priority 2012, dated 2017)
Read-outs that look alike come from different tables or passages of the source. Square brackets hold non-standard residues; d marks the D form. Ends that are not written are not given here.

Assays:
[1] = in vivo
[2] = test system: polymicrobial infection; assay: Cecal ligation and puncture (CLP) polymicrobial infection, survival; format: in vivo, mice; details: moxifloxacin alone, high dose (LD90) at 12 hours post CLP
[3] = test system: E. coli strain 018:K1; assay: E. coli peritonitis, survival; format: in vivo, BALB/c mice
[4] = test system: S. pyogenes; parameters: species or system BALB/c mice; details: mouse, in vivo
[5] = test system: Streptococcus pneumoniae; format: in vivo, BALB/c mice; details: ceftriaxone alone 1 mg/kg i.p. (suboptimal) at 24 hours post infection
Experimental: Treatment with the peptide D-Ala-p2TA was adjunct to antibiotic treatment, and was given at a delayed time point, when the infection was already established.
When the animals are treated with ceftriaxone alone, administered intraperitoneal (i.p.) at a suboptimal dose of LD25 (1 mg/kg), given at 24 hours after the infection, survival rates increased to 20%. However, when the peptide D-Ala-p2TA (at 5 mg/kg) was given in combination with the antibiotics, 24 hours post infection, substantial increase in survival, to 50%, was detected (see FIG. 17).
The correlation between survival benefit and different doses of the peptide D-Ala-p2TA was investigated when the S. pneumoniae infected animals (n=10) received a combination of a fixed dose of antibiotics (ceftriaxone, at a suboptimal dose of 1 mg/kg, administered i.p.) and different doses of the peptide D-Ala-p2TA, given 2 minutes after antibiotic treatment at 24 hours post infection. Under these experimental conditions (see FIG. 18), non-treated mice died rapidly, starting at day 2, and by day 3, all animals were already dead. Antibiotic treatment alone did provide a minor change in survival, bringing it to 20%.

Question: With `CSCC[C@H](NC(=O)[C@@H]1CCCN1C(=O)[C@@H](N)CO)C(=O)N[C@@H](CC(C)C)C(=O)N[C@H](C(=O)N[C@@H](C)C(=O)N[C@@H](Cc1ccc(O)cc1)C(=O)N[C@@H](CC(=O)O)C(=O)O)C(C)C` [p2TA, SPMLVAYD] as the molecule, how does the half-life [1] read?
Answer: 1 to 2.6 min

Question: With `COc1c(N2C[C@@H]3CCCN[C@@H]3C2)c(F)cc2c(=O)c(C(=O)O)cn(C3CC3)c12` [moxifloxacin] as the molecule, how does the survival rate [2] read?
Answer: 22%

Question: What does the source list for “H-D-Ala-Ser-Pro-Met-Leu-[U-^14C]Val-Ala-Tyr-Asp-D-Ala-OH [[^14C]-D-Ala-p2TA]”?
Answer: time of peak accumulation in lymphatic organs (lymph nodes) (5 mg/kg single i.v., radioactivity): 20 min; ratio of lymph nodes to plasma (4 minutes post infusion): greater than 1; ratio of radioactivity in spleen compared to plasma (20 min after injection): 6 fold; levels in lymph nodes vs plasma (20 minutes): 22 fold; levels in lymph nodes vs plasma (24 hours post dosing): greater than 3 fold; ratio of radioactivity in spleen compared to plasma (24 hours post injection): 3 fold; levels in lymph nodes vs plasma (for 2 hours): more than 5 fold; start of accumulation in lymphatic organs (post injection, 5 mg/kg single i.v.): 4 min

Question: Which overall survival ([3]; cefepime alone, suboptimal 5 mg/kg i.m. 4 hours after challenge) does the source give for `CO/N=C(\C(=O)N[C@@H]1C(=O)N2C(C(=O)[O-])=C(C[N+]3(C)CCCC3)CS[C@H]12)c1csc(N)n1` [cefepime] here?
Answer: 20%

Question: Which survival rate ([3]; scrambled peptide control) does the source give for [dA]ASMDYPVL[dA] [scrambled peptide] here?
Answer: comparable to the saline treated control

Question: What does the source list for `CO/N=C(\C(=O)N[C@@H]1C(=O)N2C(C(=O)O)=C(CSc3nc(=O)c(=O)[nH]n3C)CS[C@H]12)c1csc(N)n1` [ceftriaxone]?
Answer: survival [4]: 70%; survival [5]: 20%
